SMILES strings stand for the structures.

The test deals with MCF7 cells. Briefly: Anti-proliferation (viability) of MCF7 cells (Table 7, FIG. 2B). The settings on record: Homo sapiens, MCF7, MCF7 cells, 3-6 days, 10-point serial dilution; read-out: GI IC50 in MCF-7. It counts as cell-based.
Turning to `CC(=O)c1c(C)c2cnc(Nc3ccc(N4CCN(C(C)C(=O)NC5CC(Nc6nc(NC(C)C)ccc6C(=O)Nc6cn(C)c(C7CC7)n6)C5)CC4)cn3)nc2n(C2CCCC2)c1=O` (stereo not drawn) [CPD-327, 2-((3-(2-(4-(6-((6-acetyl-8-cyclopentyl-5-methyl-7-oxo-7,8-dihydropyrido[2,3-d]pyrimidin-2-yl)amino)pyridin-3-yl)piperazin-1-yl)propanamido)cyclobutyl)amino)-N-(2-cyclopropyl-1-methyl-1H-imidazol-4-yl)-6-(isopropylamino)nicotinamide], the IC50 is > 100 nM.

For the molecule `CC(=O)c1c(C)c2cnc(Nc3ccc(N4CC5(CN(CC(=O)N6CCC(Nc7nc(NC(C)C)ccc7C(=O)Nc7ccc(N(C)C)nn7)CC6)C5)C4)cn3)nc2n(C2CCCC2)c1=O` [CPD-418, 2-((1-(2-(6-(6-((6-acetyl-8-cyclopentyl-5-methyl-7-oxo-7,8-dihydropyrido[2,3-d]pyrimidin-2-yl)amino)pyridin-3-yl)-2,6-diazaspiro[3.3]heptan-2-yl)acetyl)piperidin-4-yl)amino)-N-(6-(dimethylamino)pyridazin-3-yl)-6-(isopropylamino)nicotinamide], the IC50 was < 50 nM.

On to `CNc1ccc(C(=O)Nc2ccc(N(C)C)nn2)c(NC2CC3(C2)CC(C(=O)N2CC(N4CCN(c5ccc(Nc6ncc7c(C)c(C(C)=O)c(=O)n(C8CCCC8)c7n6)nc5)CC4)C2)C3)n1` (stereo not drawn) [CPD-362, 2-((6-(3-(4-(6-((6-acetyl-8-cyclopentyl-5-methyl-7-oxo-7,8-dihydropyrido[2,3-d]pyrimidin-2-yl)amino)pyridin-3-yl)piperazin-1-yl)azetidine-1-carbonyl)spiro[3.3]heptan-2-yl)amino)-N-(6-(dimethylamino)pyridazin-3-yl)-6-(methylamino)nicotinamide], for which the IC50 is > 100 nM.

For `CC(=O)c1c(C)c2cnc(Nc3ccc(N4CCC(N5CCC(C(=O)NC6CC7(C6)CC(Nc6nc(NC(C)C)ccc6C(=O)Nc6ccc(N(C)C)nn6)C7)C5)CC4)cn3)nc2n(C2CCCC2)c1=O` (stereo not drawn) [CPD-397, 2-((6-(1-(1-(6-((6-acetyl-8-cyclopentyl-5-methyl-7-oxo-7,8-dihydropyrido[2,3-d]pyrimidin-2-yl)amino)pyridin-3-yl)piperidin-4-yl)pyrrolidine-3-carboxamido)spiro[3.3]heptan-2-yl)amino)-N-(6-(dimethylamino)pyridazin-3-yl)-6-(isopropylamino)nicotinamide], the IC50 was < 50 nM.

Turning to `CNc1ccc(C(=O)Nc2cn(C)c(C(C)(C)O)n2)c(NC2CC3(CC(NC(=O)CN4CCN(c5ccc(Nc6ncc7c(C)c(C(C)=O)c(=O)n(C8CCCC8)c7n6)nc5)CC4)C3)C2)n1` (stereo not drawn) [CPD-340, 2-((6-(2-(4-(6-((6-acetyl-8-cyclopentyl-5-methyl-7-oxo-7,8-dihydropyrido[2,3-d]pyrimidin-2-yl)amino)pyridin-3-yl)piperazin-1-yl)acetamido)spiro[3.3]heptan-2-yl)amino)-N-(2-(2-hydroxypropan-2-yl)-1-methyl-1H-imidazol-4-yl)-6-(methylamino)nicotinamide], the IC50 was > 100 nM.

Turning to `CC(=O)c1c(C)c2cnc(Nc3ccc(N4CCC(NCC(=O)N5CC(Nc6nc(NC(C)C)ccc6C(=O)Nc6ccc(N(C)C)nn6)C5)CC4)cn3)nc2n(C2CCCC2)c1=O` [CPD-356, 2-((1-((1-(6-((6-acetyl-8-cyclopentyl-5-methyl-7-oxo-7,8-dihydropyrido[2,3-d]pyrimidin-2-yl)amino)pyridin-3-yl)piperidin-4-yl)glycyl)azetidin-3-yl)amino)-N-(6-(dimethylamino)pyridazin-3-yl)-6-(isopropylamino)nicotinamide], the IC50 fell in the range of 50 to 100 nM.

A word on the IC50: it is the concentration that inhibits the measured activity by half.
